Columns and labels:
H3122 cells (EML4-ALK) = assay: Cell growth inhibition assay (WST-8), H3122; assay type: cell-based; details: Homo sapiens, NCI-H3122, read-out: H3122 (nM) (EML4-ALK), 50% of cell growth inhibition (IC50), WST-8, versus DMSO control
Description: (§1) H3122 and Kappas-299 cells were purchased from American Type Culture Collection (Manassas, Va., USA) and were used within 2 months after initiating from original stocks. All cell lines were cultured as recommended. For cell growth inhibition assay, cells were treated with different concentrations of the tested compounds, diluted from stock to culture media containing a 0.2% DMSO as the final concentration. Cell viability was determined using the WST-8 cell proliferation assay kit (Dojindo Molecular Technologies) according to manufacturer's instructions. Three independent experiments in triplicates were performed.

[1] = system: Kappas-299 cells (NPM-ALK); assay: Cell growth inhibition assay (WST-8), Kappas-299; assay type: cell-based; details: read-out: Kappas-299 (nM) (NPM-ALK), 50% of cell growth inhibition (IC50), WST-8, versus DMSO control
Description: as §1

[2] = molecular target: T1, wild-type human ALK protein (cytoplasmic domain, amino acid 1058-1620) (Homo sapiens, UniProt Q9UM73); assay: Wild-type ALK kinase inhibition, Lance TR-FRET assay; assay type: biochemical; details: Table 4; target not given; Cpd. No. 5 value equals WT ALK IC50 of Table 5; read-out: Inhibitory activity
T1 construct: The cytoplasmic domain (amino acid 1058-1620) of wild-type human ALK protein; purchased Carna Biosciences, Inc (Japan)
T1 sequence (Q9UM73 1058-1620): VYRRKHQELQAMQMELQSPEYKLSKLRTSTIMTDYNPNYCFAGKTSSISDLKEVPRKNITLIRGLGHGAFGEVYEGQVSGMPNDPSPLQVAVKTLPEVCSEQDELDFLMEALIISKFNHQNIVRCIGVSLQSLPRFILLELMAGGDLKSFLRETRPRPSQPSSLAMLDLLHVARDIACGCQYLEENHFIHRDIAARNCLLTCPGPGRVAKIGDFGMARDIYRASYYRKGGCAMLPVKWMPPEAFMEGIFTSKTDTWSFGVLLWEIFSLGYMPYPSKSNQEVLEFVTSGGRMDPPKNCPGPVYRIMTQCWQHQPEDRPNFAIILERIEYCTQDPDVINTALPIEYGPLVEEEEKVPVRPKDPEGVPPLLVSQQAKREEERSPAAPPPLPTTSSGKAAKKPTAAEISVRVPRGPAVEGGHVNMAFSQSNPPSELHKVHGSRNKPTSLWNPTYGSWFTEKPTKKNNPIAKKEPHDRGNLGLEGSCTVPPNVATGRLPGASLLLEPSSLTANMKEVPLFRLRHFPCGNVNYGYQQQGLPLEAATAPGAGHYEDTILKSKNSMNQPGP
Description: The cytoplasmic domain (amino acid 1058-1620) of wild-type human ALK protein expressed as N-terminal GST-fusion protein was purchased from Carna Biosciences, Inc (Japan). Mutated ALK proteins were expressed in SF9 insect cells with N-terminal tags cleaved after purification. Kinase activities of all enzymes were assessed using a Lance® TR-FRET assay kit from Perkin Elmer Life Sciences (Waltham, Mass.). 2.5 μL of compound solution and 5 μL of protein solution were added into a black low volume 384 well microtiter plate which was incubated for 30 minutes with gentle shaking at room temperature, followed by adding 2.5 μL of fluorescently labeled peptide substrate (ULight™-IRS-1 (Tyr983) Peptide) and ATP mixture solution. The kinase reaction was performed in 50 mM HEPES (pH 7.5) with 1 mM EGTA, 1 mM MgCl2, and 2 mM DTT, 0.01% Tween-20 added right before the assay. Final concentrations of ATP, substrates, and DMSO were 100 μM, 20 nM, and 0.5%, respectively. […] Final ALK concentrations were 1 nM, 1 nM, InM, 128 nM, 2 nM, and 4 nM for wild-type, F1174L, L1196M, S1206Y, G1269A, and G1202R, respectively. The reaction was allowed to perform for 90 minutes in dark with gentle shaking at room temperature after which 10 μL of 20 mM EDTA and 2 nM Eu-W1024 anti-phosphotyrosine antibody (PT66) mixture solution in the detection buffer from the manufacturer was added to terminate the reaction and detect the phosphorylation of the peptide substrate. The final mixture was incubated in the dark for 1 hour before the plate was read on a Tecan Infinite M-1000 multi-mode plate reader (Tecan, Durham N.C.) with an excitation wavelength of 320 nm. Emission intensities were measured at both 620 and 665 nm with the intensity ratio between 665 and 620 nm corresponding to the peptide substrate phosphorylation. IC50 values of inhibitors were obtained by fitting the ratio of 665/620 nm vs inhibitor concentrations in a sigmoidal dose-response curve (variable slope) with a non-linear regression.

[3] = system: Human lymphoma cells, KARPAS 299 xenograft; assay: KARPAS 299 xenograft tumor growth in SCID mice; assay type: in vivo; details: given orally, once daily for 3 weeks, FIG. 1
Description: Cpd. Nos. 5 and 6 were dissolved in a solution of 98% PEG200: 2% TPGS (Sigma).
Human lymphoma cells, KARPAS 299 were maintained at 37° C., 95% air, 5% carbon dioxide in RPMI 1640 medium supplemented with 10% Fetal Bovine Serum, 100 units/ml of penicillin and 100 units/ml of streptomycin (GIBCO™, Invitrogen Corp.) and passaged twice weekly.
Tumor cells for xenografts were washed twice in PBS, and re-suspended in an ice cold mixture of 1:1 PBS and Matrigel (BD Biosciences, Invitrogen Corp.) for a final Matrigel protein concentration of 5 mg/ml. Cells at 5×10^6 cells in 0.1 ml were injected subcutaneously (s.c.) into the flank region of each mouse. All tumors were inoculated into SCID mice (strain:236 C.B-17 SCID, Charles River).
The size of tumors growing in the mice was measured in two dimensions using calipers. Tumor volume (mm^3)=(AxB^2)/2 where A and B are the tumor length and width (in mm), respectively. During treatment, tumor volume and body weight were measured three times a week. After the treatment was stopped, tumor volume and body weight was measured at least once a week.
Tumors were not allowed to exceed 10% of the animal's total body weight. If an animal had two or more tumors the total weight of all tumors were not allowed to exceed 10% of the animal's total body weight. […]

[4] = Pharmacokinetics in SD rats; assay type: in vivo; details: 10 mg/kg, Table 8 (SD rats), PO 10 mg/kg
Description: Routine pharmacokinetics studies were performed for Cpd. No. 5 in SD rats and beagle dogs.

Compound	IC50 (H3122 cells (EML4-ALK))	IC50 [2]	IC50 [1]	also measured
Cc1cc(Nc2ncc(Cl)c(Nc3ccccc3S(=O)(=O)C(C)C)n2)c(OC(C)C)cc1C1=C[C@H](C2CC2)N(C)[C@H](C2CC2)C1 (racemic) [compound 16, 5-chloro-N2-(4-((cis)-2,6-dicyclopropyl-1-methyl-1,2,3,6-tetrahydropyridin-4-yl)-2-isopropoxy-5-methylphenyl)-N4-(2-(isopropylsulfonyl)phenyl)pyrimidine-2,4-diamine]	160 nM	6.3 nM	97.7 nM	
Cc1cc(Nc2ncc(Cl)c(Nc3ccccc3S(=O)(=O)C(C)C)n2)c(OC(C)C)cc1C1=CCN(C2COC2)CC1 [compound 6, 5-chloro-N2-(2-isopropoxy-5-methyl-4-(1-(oxetan-3-yl)-1,2,3,6-tetrahydropyridin-4-yl)phenyl)-N4-(2-(isopropylsulfonyl)phenyl)pyrimidine-2,4-diamine]				tumor growth in the KARPAS 299 xenograph model [3]: inhibit tumor growth
Cc1cc(Nc2ncc(Cl)c(Nc3ccccc3S(=O)(=O)C(C)C)n2)c(OC(C)C)cc1C1=C[C@H](C)N[C@H](C)C1 (racemic) [compound 9, 5-chloro-N2-(4-((cis)-2,6-dimethyl-1,2,3,6-tetrahydropyridin-4-yl)-2-isopropoxy-5-methylphenyl)-N4-(2-(isopropylsulfonyl)phenyl)pyrimidine-2,4-diamine]	54.9 nM	1.1 nM	35.9 nM	
Cc1cc(Nc2ncc(Cl)c(Nc3ccccc3S(=O)(=O)C(C)C)n2)c(OC(C)C)cc1C1=CCN(C2CCOCC2)CC1 [Cpd. No. 5 (mesylate), 5-chloro-N2-(2-isopropoxy-5-methyl-4-(1-(tetrahydro-2H-pyran-4-yl)-1,2,3,6-tetrahydropyridin-4-yl)phenyl)-N4-(2-(isopropylsulfonyl)phenyl)pyrimidine-2,4-diamine]				half-life ([4]; Sprague-Dawley, rat, in vivo, po, read-out: t1/2 (h) PO (converted)): 3.84 h; AUC0-t (ng · h/mL) PO [4]: 958 ng·h/mL; AUC0-∞ (ng · h/mL) PO [4]: 971 ng·h/mL; Cmax(ng/mL) PO [4]: 127 ng/mL; Tmax (h) PO [4]: 1.0 h
Cc1cc(Nc2ncc(Cl)c(Nc3ccccc3S(=O)(=O)C(C)C)n2)c(OC(C)C)cc1C1=C[C@H](C2CC2)N[C@H](C2CC2)C1 (racemic) [compound 15, 5-chloro-N2-(4-((cis)-2,6-dicyclopropyl-1,2,3,6-tetrahydropyridin-4-yl)-2-isopropoxy-5-methylphenyl)-N4-(2-(isopropylsulfonyl)phenyl)pyrimidine-2,4-diamine]	196 nM	6.6 nM	121 nM	

More lines, main results first:

IC50 (H3122 cells (EML4-ALK))	IC50 [2]	Compound	IC50 [1]	also measured
132 nM	4.4 nM	Cc1cc(Nc2ncc(Cl)c(Nc3ccccc3S(=O)(=O)C(C)C)n2)c(OC(C)C)cc1C1=CC(C)(C)NC(C)(C)C1 [compound 2, 5-chloro-N2-(2-isopropoxy-5-methyl-4-(2,2,6,6-tetramethyl-1,2,3,6-tetrahydropyridin-4-yl)phenyl)-N4-(2-(isopropylsulfonyl)phenyl)pyrimidine-2,4-diamine]	39 nM	
54.9 nM	0.98 nM	Cc1cc(Nc2ncc(Cl)c(Nc3ccccc3S(=O)(=O)C(C)C)n2)c(OC(C)C)cc1C1=C[C@H](C)N(C)[C@H](C)C1 (racemic) [compound 10, 5-chloro-N2-(2-isopropoxy-5-methyl-4-((cis)-1,2,6-trimethyl-1,2,3,6-tetrahydropyridin-4-yl)phenyl)-N4-(2-(isopropylsulfonyl)phenyl)pyrimidine-2,4-diamine]	37.5 nM	
92 nM	1.8 nM	Cc1cc(Nc2ncc(Cl)c(Nc3ccccc3S(=O)(=O)C(C)C)n2)c(OC(C)C)cc1C1=CC(C)(C)N(C)C(C)(C)C1 [compound 1, 5-chloro-N2-(2-isopropoxy-5-methyl-4-(1,2,2,6,6-pentamethyl-1,2,3,6-tetrahydropyridin-4-yl)phenyl)-N4-(2-(isopropylsulfonyl)phenyl)pyrimidine-2,4-diamine]	30 nM	

From patent publication US10709705B2, “Aminopyrimidines as ALK inhibitors” (THE REGENTS OF THE UNIVERSITY OF MICHIGAN, priority 2016, dated 2020)
